Results as given in patent US20070093520A1, “Method of treatment of diarrhea-predominant irritable bowel syndrome in a subject” (priority 2005, published 2007).

What was measured:
Assay type in all cases: in vivo, human
[1] = system: non-constipated IBS subjects; experiment: Phase II clinical trial Study S241.2.113, adequate relief of IBS symptoms; settings: 2 mg TID
[2] = system: subjects with ROME II defined IBS-D; experiment: 5050 Study: IBS-QoL survey; design: IBS-QoL subscale score: Interference with activity / IBS-QoL subscale score: Food avoidance / IBS-QoL subscale score: Sexual / IBS-QoL subscale score: Health Worry / IBS-QoL subscale score: Relationship / IBS-QoL subscale score: Body Image / IBS-QoL subscale score: Social Reaction / IBS-QoL subscale score: Dysphoria: scale not given here; settings: Study 5050
Experimental: (§1) The 5050 Study was a double-blind, randomized, placebo-controlled study to evaluate the long-term safety and tolerability of cilansetron 2 mg taken on an as needed (prn) basis for 1 year by male and female subjects with ROME II defined IBS-D. The study was performed in 68 centers. Patients were randomized in a 3:1 ratio to receive either cilansetron 2 mg prn or placebo, up to 3 times a day. Safety parameters were explored by comparing the double-blind groups, average daily doses and treatment exposure. Patient visits were scheduled as follows: Visit 1 (pretreatment), Visit 2 (Day 1), Visit 3 (Month 1), Visit 4 (Month 3), Visit 5 (Month 6), Visit 6 (Month 9), and Visit 7 (Month 12). Safety assessments included: adverse events (AEs)/serious adverse events (SAES); laboratory parameters (pretreatment visit and at Months 1, 6, and 12); electrocardiograms (pretreatment visit and at Months 1, 6, and 12); vital signs (at each visit); physical examinations and body weight (pretreatment visit and at Month 12); prior and concomitant medication use (each visit and/or through spontaneous reporting); stool cards for occult blood (every visit except Visit 1). The number of tablets taken per day was recorded daily through a validated interactive voice response system. Patients who met the ROME criteria for IBS and ROME II criteria for the diarrhea predominant subpopulation were included in the study. Patients with acute colitis of any etiology, history of chronic colitis of any etiology, or a history of intestinal obstruction, stricture, toxic megacolon, gastrointestinal (GI) perforation, or fecal impaction were excluded from the study.
Subjects were asked to complete a IBS-QOL Survey at Day 1 (Visit 5 of the core protocol), Month 6 and Month 12 (end of study or early termination) in order to assess possible changes of their QOL. The IBS-QoL survey, a 34 item IBS-specific QoL questionnaire consisting of 8 subscales (i.e., interference with activity; body image; health worry; food avoidance; social reaction; sexual; relationship; and dysphoria) was completed by patients at baseline and at later specified time points (e.g., at week 12 and at week 16 in Study 5050).

[3] = system: subjects with ROME II defined IBS-D; experiment: 5050 Study: double-blind placebo-controlled prn safety study, adverse events and withdrawals; settings: Study 5050
Experimental: as §1
For Study 5050, of a total of 402 patients randomized to treatment, 400 received study medication and 395 were included in the safety analysis (cilansetron, N=301; placebo, N=94). Five patients were excluded because of a lack of a post-baseline safety evaluation. Thirty nine percent of patients in the cilansetron group and 56% in the placebo group withdrew from the study; the differences in withdrawals largely were due to lack of efficacy (15% v. 34%, respectively), followed by other unspecified reasons (16% v. 19%, respectively) and AEs (10% v. 9%, respectively). Most patients (57%) were in the 41 to 64 year age category and 72% of all patients were female.

[4] = Table 10.5, time point not stated

SMILES: Cc1nccn1C[C@H]1CCc2c(c3cccc4c3n2CCC4)C1=O [cilansetron, (R)-(−)-4,5,6,8,9,10-hexahydro-10-[(2-methyl-1H-imidazol-1-yl)methyl]-11H-pyrido-[3,2,1-jk]-carbazol-11-one]
- adequate relief of IBS symptoms versus placebo [1]: superior to placebo
- IBS-QoL subscale score: Body Image [2, 4]: 61.7
- IBS-QoL subscale score: Dysphoria [2, 4]: 47.4
- IBS-QoL subscale score: Food avoidance [2, 4]: 38.3
- IBS-QoL subscale score: Health Worry [2, 4]: 65.3
- IBS-QoL subscale score: Interference with activity [2, 4]: 41.1
- IBS-QoL subscale score: Relationship [2, 4]: 62.5
- IBS-QoL subscale score: Sexual [2, 4]: 72.2
- IBS-QoL subscale score: Social Reaction [2, 4]: 58.3
- change from baseline of IBS-QoL total score, interference with activity, body image, sexual score and dysphoria ([2]; p<0.050): significant improvement
- Treatment-related AE: Alanine aminotransferase increased ([3]; 2 mg prn (N = 301)): 9 (3) N (%)
- Treatment-related AE: Diarrhea (not otherwise specified) ([3]; 2 mg prn (N = 301)): 5 (2) N (%)
- Treatment-related AE: Flatulence ([3]; 2 mg prn (N = 301)): 6 (2) N (%)
- Treatment-related AE: Headache (not otherwise specified) ([3]; 2 mg prn (N = 301)): 13 (4) N (%)
- Treatment-related AE: Nausea ([3]; 2 mg prn (N = 301)): 15 (5) N (%)
- Treatment-related AE: Rectal Hemmorhage ([3]; 2 mg prn (N = 301)): 8 (3) N (%)
- treatment-related AE: abdominal pain not otherwise specified ([3]; 2 mg prn (N = 301)): 16 (5) N (%)
- treatment-related AE: constipation ([3]; 2 mg prn (N = 301)): 24 (8) N (%)
- AE incidence: GI and abdominal pain (excluding oral and throat) ([3]; cilansetron group): 12%
- AE incidence: GI atonic and hypomotility disorders ([3]; cilansetron group): 11%
- AE incidence: nausea and vomiting ([3]; cilansetron group): 7%
- AE leading to study discontinuation: abdominal pain ([3]; cilansetron group): 2%
- AE leading to study discontinuation: constipation ([3]; cilansetron group): 2%
- treatment-related AE: abdominal pain not otherwise specified ([3]; cilansetron group): 5%
- treatment-related AE: constipation ([3]; cilansetron group): 8%
- withdrawals due to AEs ([3]; cilansetron group): 10%
- withdrawals due to lack of efficacy ([3]; cilansetron group): 15%
